What was measured:
[1] = system: Non-Small Cell Lung Cancer Tumor Spheroids (co-cultured cell spheroids, A549 / HFL-1); test: Morphology and area of tumor spheroids after drug administration on the chip (bright-field, quantified); format: cell-based, human
Experimental: In some embodiments, the A549 cell line of the present disclosure is purchased from ATCC, and is commonly used for developing lung cancer drugs and drug delivery experiments. The A549 cells are cultured in F12K cell culture medium (10-025, Corning) supplemented with 10% fetal bovine serum (FBS) (35-076-EV, Corning). The cells are taken out from the liquid nitrogen tank and thawed in a […] water bath. The cell suspension in the cryovial is extracted and mixed with 1 mL of cell culture medium, followed by adding it to a T-75 cell culture flask containing 9 mL of cell culture medium for uniform mixing and culture. When cell confluence reaches 80%, cell passaging is carried out. Cells are first rinsed with DPBS and then detached from the T-75 cell culture flask using trypsin. The detached A549 cells are transferred to a 15 mL centrifuge tube, and centrifuged at 1000 rpm for 5 minutes at 24° C. After centrifugation, the cells are concentrated at the bottom of the centrifuge tube, and the supernatant is aspirated. Subsequently, 500 μL of cell culture medium is added, mixed thoroughly, and the cells are resuspended. A 20 μL cell suspension is then withdrawn, and the cell count is determined using an automatic cell counter, which is used to estimate the total number of cells in the centrifuge tube. The estimated number of cells is then seeded back into the T-75 cell culture flask.
In some embodiments, the HFL-1 cell line of the present disclosure is purchased from BCRC, and is commonly used for co-culture and cytotoxicity studies. The cells are cultured in F12K cell culture medium (10-025, Corning) supplemented with 10% fetal bovine serum (FBS) (35-076-EV, Corning). The cells are removed from the liquid nitrogen tank and thawed in a 37° C. water bath. […] A 20 μL cell suspension is then withdrawn, and the cell count is determined using an automatic cell counter to estimate the total number of cells in the centrifuge tube. […]

[2] = system: cell spheroids (A549); test: Effect of TGF-β on spreading and metastasis of cell spheroids cultured on the hydrogel; format: cell-based, human
Experimental: In some embodiments, the present disclosure uses Ultra-Low Attachment (ULA) 96-well plates (7007, Corning) to conduct in vitro 3D cell spheroid cultures. The ULA 96-well plates feature an extremely low attachment surface that minimizes cell adhesion and protein absorption, facilitating the formation of cell spheroids. In each well of the ULA 96-well plate, 1000 to 8000 cells (with each well containing 200 μL of cell culture medium) are added, and the morphological changes of the cells are observed. After four days of cell seeding, compact cell spheroids are formed.
In some embodiments, before seeding cell spheroids, the chip is irradiated with ultraviolet (UV) light for 30 minutes and washed with filtered 75% alcohol, 95% alcohol, and deionized water, respectively. […]
In some embodiments, Image-J software is used to perform quantitative analysis of the cell spheroid spreading area. […] The spreading area of cell spheroids is then quantitatively analyzed.
After culturing on the hydrogel for 48 hours, the development of the cell spheroids is observed using a fluorescence microscope. […] The original cell spheroids display red fluorescence indicating the expression of vimentin. […] “Top view” and “side view” refer to the respective perspectives, and the green fluorescence labels F-actin.

Row | Molecule | shape of cell spheroids after drug treatment ([1]; Dox 0, 40, 90 and 320 μM, 48 hours, on chip, FIG. 10A/10B) | area of tumor spheroids (quantitative analysis) ([1]; Dox 0, 40, 90 and 320 μM, FIG. 10C/10D) | therapeutic effect on static tumor spheroids (summary) ([1]; static tumor spheroids, single drug) | outward expansion and migration of cells in the cell spheroids (spreading area) ([2]; 20 ng/ml TGF-β, 48 hours on hydrogel, versus untreated, FIG. 3B/3C) | structure of cell spheroids ([2]; prolonged TGF-β treatment, FIG. 3D)
1 | COc1cccc2c1C(=O)c1c(O)c3c(c(O)c1C2=O)C[C@@](O)(C(=O)CO)C[C@@H]3O[C@H]1C[C@H](N)[C@H](O)[C@H](C)O1 [Dox] | maintain their original shape | no significant decrease | no therapeutic effect |  | 
2 | transforming growth factor-beta [TGF-β] |  |  |  | increased outward expansion and migration range | disaggregate and expand outward
